The source made the active and inactive calls. The calls are words filed in the database; no cut-off is given here. Where a SMILES comes first, the peptide text is derived from it. [ ]: non-standard residue; d: D form. Pro(cis-4-F) = O=C(O)[C@@H]1C[C@H](F)CN1; Hyp = O=C(O)[C@@H]1C[C@@H](O)CN1
Assays:
[1] = target: T1, Prolyl 4-hydroxylase (Paramecium bursaria Chlorella virus 1) (UniProt Q84406); assay: Substrate activity at N-terminal His6-tagged recombinant Paramecium bursaria chlorella virus 1 CPH expressed in Escherichia coli Rosetta 2 (DE3) cells assessed as substrate hydroxylation at 100 uM incubated for 16 hrs in presence of 2OG by MALDI TOF MS analysis
T1 sequence (whole entry): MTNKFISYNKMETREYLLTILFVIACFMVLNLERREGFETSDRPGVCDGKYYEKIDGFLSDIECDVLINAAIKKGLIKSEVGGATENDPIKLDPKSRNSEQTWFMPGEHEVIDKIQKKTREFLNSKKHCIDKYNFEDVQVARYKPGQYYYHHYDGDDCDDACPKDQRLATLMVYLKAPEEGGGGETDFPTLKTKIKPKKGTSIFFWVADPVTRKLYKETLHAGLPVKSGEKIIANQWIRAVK

[2] = target: T2, Prolyl 4-hydroxylase (Paramecium bursaria Chlorella virus 1, UniProt Q84406); assay: Inhibition of N-terminal His6-tagged recombinant Paramecium bursaria chlorella virus 1 CPH expressed in Escherichia coli Rosetta 2 (DE3) cells pre-incubated for 5 mins before 2OG as substrate and Fe2 as co-factor addition in presence of L-ascorbate and measured after 5 mins MALDI TOF MS analysis
T2 sequence (Q84406 whole entry): T1 sequence (whole entry)

[3] = target: Hypoxia-inducible factor 1-alpha inhibitor (Homo sapiens, UniProt Q9NWT6); assay: Inhibition of recombinant human FIH using 2OG as substrate and Fe2 as co-factor assessed as hydroxylation incubated for 15 mins in presence of L-ascorbate by LC-MS analysis
Chain of Hypoxia-inducible factor 1-alpha inhibitor (Q9NWT6 whole entry): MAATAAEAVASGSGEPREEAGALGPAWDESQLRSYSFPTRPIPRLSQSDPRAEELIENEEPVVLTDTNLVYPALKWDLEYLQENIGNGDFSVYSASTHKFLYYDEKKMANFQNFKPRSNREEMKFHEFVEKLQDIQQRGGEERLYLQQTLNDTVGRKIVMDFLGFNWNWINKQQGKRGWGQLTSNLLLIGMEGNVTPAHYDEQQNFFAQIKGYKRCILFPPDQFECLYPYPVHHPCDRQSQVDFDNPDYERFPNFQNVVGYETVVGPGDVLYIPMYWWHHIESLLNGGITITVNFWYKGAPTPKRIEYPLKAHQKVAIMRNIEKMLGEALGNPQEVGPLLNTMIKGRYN

[4] = target: T3, Prolyl 3-hydroxylase OGFOD1 (Homo sapiens, UniProt Q8N543); assay: Inhibition of recombinant human OGFOD1 using 2OG as substrate and Fe2 as co-factor assessed as hydroxylation incubated for 15 mins in presence of L-ascorbate by MALDI-TOF MS analysis
T3 sequence (Q8N543 whole entry): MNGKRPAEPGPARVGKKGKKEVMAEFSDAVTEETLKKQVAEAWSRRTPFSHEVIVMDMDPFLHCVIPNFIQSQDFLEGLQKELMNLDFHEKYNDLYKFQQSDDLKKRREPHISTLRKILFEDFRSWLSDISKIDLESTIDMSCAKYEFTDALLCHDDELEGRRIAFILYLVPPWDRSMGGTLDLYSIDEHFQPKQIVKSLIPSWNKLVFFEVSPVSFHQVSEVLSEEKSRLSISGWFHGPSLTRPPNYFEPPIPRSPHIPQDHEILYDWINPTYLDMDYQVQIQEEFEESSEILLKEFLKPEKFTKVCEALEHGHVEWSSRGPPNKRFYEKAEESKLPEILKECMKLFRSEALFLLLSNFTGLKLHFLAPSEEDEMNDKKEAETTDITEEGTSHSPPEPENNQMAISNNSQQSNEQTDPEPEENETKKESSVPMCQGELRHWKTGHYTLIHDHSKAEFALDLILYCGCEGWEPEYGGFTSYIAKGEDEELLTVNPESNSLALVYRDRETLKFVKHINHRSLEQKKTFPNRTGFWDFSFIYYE

[5] = target: T1, Prolyl 4-hydroxylase (Paramecium bursaria Chlorella virus 1); assay: Substrate activity at N-terminal His6-tagged recombinant Paramecium bursaria chlorella virus 1 CPH expressed in Escherichia coli Rosetta 2 (DE3) cells assessed as substrate hydroxylation incubated for 16 hrs in presence of 2OG and in absence of L-ascorbate by MALDI TOF MS analysis
[6] = target: T1, Prolyl 4-hydroxylase (Paramecium bursaria Chlorella virus 1); assay: Substrate activity at N-terminal His6-tagged recombinant Paramecium bursaria chlorella virus 1 CPH expressed in Escherichia coli Rosetta 2 (DE3) cells assessed as succinate production at 500 uM incubated for 60 s in presence of 2OG and using Fe2 as cofactor by 1H NMR spectroscopy
[7] = compound: C[C@H](NC(=O)[C@@H]1CCCN1)C(=O)N1CCC[C@H]1C(=O)N[C@@H](CCCCN)C(=O)N1C[C@H](O)C[C@H]1C(=O)N[C@@H](C)C(=O)N1CCC[C@H]1C(=O)N[C@@H](CCCCN)C(=O)O; assay: Substrate activity at N-terminal His6-tagged recombinant Paramecium bursaria chlorella virus 1 CPH expressed in Escherichia coli Rosetta 2 (DE3) cells assessed as substrate Kcat incubated for 16 hrs in presence of 2OG by MALDI TOF MS analysis
[8] = compound: C[C@H](NC(=O)[C@@H]1CCCN1)C(=O)N1CCC[C@H]1C(=O)N[C@@H](CCCCN)C(=O)N1C[C@H](O)C[C@H]1C(=O)N[C@@H](C)C(=O)N1CCC[C@H]1C(=O)N[C@@H](CCCCN)C(=O)O; assay: Substrate activity at N-terminal His6-tagged recombinant Paramecium bursaria chlorella virus 1 CPH expressed in Escherichia coli Rosetta 2 (DE3) cells assessed as substrate Km incubated for 16 hrs in presence of 2OG by MALDI TOF MS analysis
[9] = compound: C[C@H](NC(=O)[C@@H]1CCCN1)C(=O)N1CCC[C@H]1C(=O)N[C@@H](CCCCN)C(=O)N1C[C@H](O)C[C@H]1C(=O)N[C@@H](C)C(=O)N1CCC[C@H]1C(=O)N[C@@H](CCCCN)C(=O)O; assay: (§1) Substrate activity at N-terminal His6-tagged recombinant Paramecium bursaria chlorella virus 1 CPH expressed in Escherichia coli Rosetta 2 (DE3) cells assessed as Km(app) for Fe2 incubated for 16 hrs in presence of 2OG and Fe2 by MALDI TOF MS analysis
[10] = compound: C[C@H](NC(=O)[C@@H]1CCCN1)C(=O)N1C[C@H](O)C[C@H]1C(=O)N[C@@H](CCCCN)C(=O)N1CCC[C@H]1C(=O)N[C@@H](C)C(=O)N1CCC[C@H]1C(=O)N[C@@H](CCCCN)C(=O)O; assay: as §1
[11] = compound: C[C@H](NC(=O)[C@@H]1CCCN1)C(=O)N1CCC[C@H]1C(=O)N[C@@H](CCCCN)C(=O)N1C[C@H](O)C[C@H]1C(=O)N[C@@H](C)C(=O)N1CCC[C@H]1C(=O)N[C@@H](CCCCN)C(=O)O; assay: (§2) Substrate activity at N-terminal His6-tagged recombinant Paramecium bursaria chlorella virus 1 CPH expressed in Escherichia coli Rosetta 2 (DE3) cells assessed as Km for 2OG incubated for 16 hrs in presence of 2OG and Fe2 by MALDI TOF MS analysis
[12] = compound: C[C@H](NC(=O)[C@@H]1CCCN1)C(=O)N1C[C@H](O)C[C@H]1C(=O)N[C@@H](CCCCN)C(=O)N1CCC[C@H]1C(=O)N[C@@H](C)C(=O)N1CCC[C@H]1C(=O)N[C@@H](CCCCN)C(=O)O; assay: as §2
[13] = compound: C[C@H](NC(=O)[C@@H]1CCCN1)C(=O)N1CCC[C@H]1C(=O)N[C@@H](CCCCN)C(=O)N1C[C@H](O)C[C@H]1C(=O)N[C@@H](C)C(=O)N1CCC[C@H]1C(=O)N[C@@H](CCCCN)C(=O)O; assay: (§3) Substrate activity at N-terminal His6-tagged recombinant Paramecium bursaria chlorella virus 1 CPH expressed in Escherichia coli Rosetta 2 (DE3) cells assessed as Km(app) for ascorbate incubated for 16 hrs in presence of ascorbate, 2OG and Fe2 by MALDI TOF MS analysis
[14] = compound: C[C@H](NC(=O)[C@@H]1CCCN1)C(=O)N1C[C@H](O)C[C@H]1C(=O)N[C@@H](CCCCN)C(=O)N1CCC[C@H]1C(=O)N[C@@H](C)C(=O)N1CCC[C@H]1C(=O)N[C@@H](CCCCN)C(=O)O; assay: as §3

C[C@H](NC(=O)[C@H](CO)NC(=O)[C@H](CCCCN)NC(=O)[C@@H]1C[C@@H](O)CN1C(=O)[C@H](C)NC(=O)[C@@H]1CCCN1)C(=O)N1CCC[C@H]1C(=O)N[C@@H](CCCCN)C(=O)O (H-PA[Hyp]KSAPK-OH)
Activity [1]: inactive

C[C@H](NC(=O)[C@@H]1CCCN1)C(=O)N1C[C@H](O)C[C@H]1C(=O)N[C@@H](CCCCN)C(=O)N[C@H](C(=O)N[C@@H](C)C(=O)N1CCC[C@H]1C(=O)N[C@@H](CCCCN)C(=O)O)[C@@H](C)O (H-PA[Hyp]KTAPK-OH)
Activity [1]: inactive

CC(C)[C@H](NC(=O)[C@H](CCCCN)NC(=O)[C@@H]1C[C@@H](O)CN1C(=O)[C@H](C)NC(=O)[C@@H]1CCCN1)C(=O)N[C@@H](C)C(=O)N1CCC[C@H]1C(=O)N[C@@H](CCCCN)C(=O)O (H-PA[Hyp]KVAPK-OH)
Activity [1]: inactive

C[C@H](NC(=O)[C@H](Cc1c[nH]c2ccccc12)NC(=O)[C@H](CCCCN)NC(=O)[C@@H]1C[C@@H](O)CN1C(=O)[C@H](C)NC(=O)[C@@H]1CCCN1)C(=O)N1CCC[C@H]1C(=O)N[C@@H](CCCCN)C(=O)O (H-PA[Hyp]KWAPK-OH)
Activity [1]: inactive

C[C@H](NC(=O)[C@H](Cc1ccc(O)cc1)NC(=O)[C@H](CCCCN)NC(=O)[C@@H]1C[C@@H](O)CN1C(=O)[C@H](C)NC(=O)[C@@H]1CCCN1)C(=O)N1CCC[C@H]1C(=O)N[C@@H](CCCCN)C(=O)O (H-PA[Hyp]KYAPK-OH)
Activity [1]: inactive

C[C@H](NC(=O)[C@@H]1CCCN1)C(=O)N1C[C@H](O)C[C@H]1C(=O)N[C@@H](CCCCN)C(=O)N1C[C@@H](F)C[C@H]1C(=O)N[C@@H](C)C(=O)N1CCC[C@H]1C(=O)N[C@@H](CCCCN)C(=O)O (H-PA[Hyp]K[Pro(cis-4-F)]APK-OH)
Activity [1]: Active

O=c1c(-n2ccnn2)c[nH]n1-c1cc(N2CCOCC2)ncn1 [MOLIDUSTAT]
IC50 [2]: 26.8 µM
Ki [2]: 16.1 µM
IC50 [3]: 31 µM
IC50 [4]: < 1 µM

Cc1nc(C(=O)NCC(=O)O)c(O)c2ccc(Oc3ccccc3)cc12 [ROXADUSTAT]
IC50 [2]: 5 µM
Ki [2]: 1.07 µM
IC50 [3]: > 100 µM
IC50 [4]: < 1 µM

H-PAPKPAPK-OH
Activity [5]: inactive
Activity [6]: Active

B1: Prolyl 4-hydroxylase (Paramecium bursaria Chlorella virus 1), Q84406 (protein)
chain: T1 sequence (whole entry)
kcat [7]: 52.1 s⁻¹
Km [8]: 230 µM
Km [9]: 1.1 µM
Km [10]: 0.9 µM
Km [11]: 27.4 µM
Km [12]: 29.5 µM
Km [13]: 13.8 µM
Km [14]: 1.7 µM

Reference: ChEMBL document CHEMBL4340506, “Inhibition of a viral prolyl hydroxylase” (Bioorg Med Chem, 2019)
